# Experimental data as given in publication PMC3514216, “SRC Homology 2 Domain Binding Sites in Insulin, IGF-1 and FGF receptor mediated signaling networks reveal an extensive potential interactome” (Cell Communication and Signaling : CCS, 2012).
# System: panel of 50 SH2 domains
# Assay: SPOT peptide array probed with each of 50 GST-SH2 domains
# Format: binding
# Details: for SH2 Domains >3X / 2X < SH2 Domains < 3X: SPOT192 peptide array; for SH2 Domains >3X: list of GST-SH2 domains with spot intensity >3X array mean (array-positive); for 2X < SH2 Domains < 3X: list of GST-SH2 domains with spot intensity between 2X and 3X array mean (indeterminate range)
# Excerpt: The use of addressable peptide arrays is a reproducible and semi-quantitative approach that has been extensively validated for studying protein interactions with peptide ligands. To investigate connections between SH2 domain proteins and their putative phosphorylated docking sites on cell surface receptors, we developed addressable arrays consisting of 192 phosphotyrosine peptides. This peptide set was assembled using 71 phosphotyrosine peptide motifs corresponding to all of the cytoplasmic tyrosine residues within the FGF receptors (FGFR1-4), insulin receptor (InsR) and IGF-1 receptor (IGF-1R) (Figure 1A). Activation of these receptors results in the phosphorylation of associated scaffold proteins, and so 75 phosphotyrosine peptides corresponding to a comprehensive list of tyrosine residues within insulin receptor substrates (IRS-1 and IRS-2) and fibroblast receptor substrates (FRS-2 and FRS-3) were included. In addition, 33 phosphotyrosine peptides were incorporated from the downstream signaling proteins PLC-γ1, p130Cas (BCAR1) and p62DOK1. […] These control peptides provide a reference and establish the empirical cut-off for designated binding interactions (Table 1). No discrimination was made against peptides on the basis of reported phosphorylation state in order to examine a diverse and unbiased set of motifs. The resulting set of 192 phosphotyrosine peptides and their corresponding position in the proteins of origin is noted in Additional file 1: Table S1. Addressable arrays were synthesized as membrane-bound 11-mer peptides using the SPOT synthesis technique. While the majority of SH2 domains recognize residues C-terminal to the phosphotyrosine in their cognate peptide ligands, additional contacts between SH2 domains and residues N-terminal to the phosphotyrosine are observed for the SH2 domain of Sh2d1a (SAP) and cannot be ruled out in other cases. Peptides were synthesized with six flanking residues C-terminal to the phosphotyrosine and four residues N-terminal to the phosphotyrosine.
# To assess the potential network of SH2 domain interactions we selected 50 SH2 domains representing 28 of the 38 families of SH2 domains (Figure 1B) all of which we have previously shown can be expressed and purified. These include a number of extensively studied SH2 domains (Src, Grb2, PLCγ), as well as a number of less studied SH2 domains from proteins such as Shd, She, Shf, Slnk (Sh2d6), Sh2d1a (SAP), Sh2d1b (Eat-2), and Brdg1. To address potential variability in specificity within families we employed all members from the SHB, CRK, GRB2, SRC and ABL families (families are indicated with complete Capitalized lettering).
# SH2 domains were arrayed as GST fusion proteins and detected using anti-GST primary antibodies and near-infrared labeled secondary antibodies. In an effort to present a dataset with minimal false positives, we chose an empirical cutoff based on the array average across all peptide spots to classify interactions (Figure 1A). In cases where the intensity of the signal for an individual SH2-domain binding event exceeded the mean intensity of all the peptides on the membrane by three-fold were scored as “array positives” [22]. Non-binding was judged in cases where the intensity of a spot was less than the mean intensity of all spots on the membrane and these were scored as “array negatives”. Peptides with signal intensities between 1X and 3X mean were scored as “indeterminate” and ascribed as neither array positive binding interactions nor array-negative non-binders. […] This signature may be indicative of promiscuity differences between phosphopeptides or there may be a subset of peptides which interact in a nonspecific fashion with either the GST fusion tag or one of the antibodies used for detection, resulting in false positives. […]
Substance,SH2 Domains >3X,2X < SH2 Domains < 3X,"Other SH2 domains bound (additional array-positive SH2 domains) (SH2 domains with intensity >3X array mean, GST-SH2 0.25 μM, 1 mM DTT)"
VSCApYQVARGM [E11],BRDG1,"CRK, ITK, MIST, PLCG2_N, SHB, SHF",
ADNDpYIIPLPD [A07],"BRK, DAPP1, PLCG2_N, PLCG2_C, SRC, VAV1","HCK, LCK, LYN, PI3K1_N, RIN1, SH2D1B, YES",
PQGLpYDLPREP [H20],"ABL1, CRK, CRKL, NCK1, ZAP70_N",HCK,
TKDEpYFAVAAE [D04],,SH2D1B,
AEDVpYDVPPPA [A04],"CRK, CRKL, HCK, NCK1, SRC","FYN, LYN, YES",
SDDDpYDDVDIP [A12],"BRK, NCK1, SLNK",,
PSDApYYGPEDP [C10],"DAPP1, PLCG2_N, PLCG2_C","BLK, BMX, LCK, RASA1_N",
QSHTpYVNTPAS [G12],"GADS, GRAP, GRB2, GRB7, VAV1","ABL1, SH2D2A",
YETDpYYRKGGK [B01],"BCAR3, BMX, BRDG1, BRK, ITK, PLCG2_N, RIN1, TENC1","FER, MIST, PTPN11_C, SH2D2A, SHB, SHF, SHD, SHE, SYK_C",
PGLDpYSFDTCK [F09],"ABL1, CRK, CRKL, HCK, GRB7, SHIP1, SRC, ZAP70_N","FGR, SHC1",
ATDDpYAVPPPR [A02/H23],"CRK, CRKL, HCK",SRC,
VSCTpYQLARGM [E23],"BRDG1, MIST, PLCG2_N, SHF","ITK, PLCG2_C, SHB",
PVLSpYYSLPRS [C12],"CRK, CRKL, Sh2b, SYK_C","BRDG1, SHF",
NLREpYLRARRP [E20],"BCAR3, BMX, BRDG1, MIST, PLCG2_N, RIN1, SHF, SHD, TENC1","BRK, DAPP1, FER, PI3K1_N, PLCG2_C, PTPN11_C, Sh2b, SHB",
YKAPpYTAGGDS [D22],MIST,,
MEYSpYDINRVP [E22],ABL1,,
FKRSpYEEHIPY [B05],"SHB, SHF, SHD, SHE","BRDG1, TENC1",
PMHNpYVNTENV [G07],"GADS, GRAP, GRB2, SH3BP2","PI3K1_C, VAV1",
RGMEYpLASKKA [E12],"BCAR3, BRDG1, TENC1, ZAP70_N","BMX, FER, MIST, PLCG2_N, SHB, SHF",
LPNGpYPRYPSF [F24],"BRDG1, GRAP, GRB2, MIST, PTPN11_C, Sh2b, SHB, SHF","BCAR3, BMX, PLCG2_N, PLCG2_C, SHD, SYK_C, TENC1",
VFTTpYSDVWSF [B13],"ABL1, ABL2, BRK, ITK, RASA1_N, RASA1_C, RIN1, SH2D1B, SH2D2A, SHC1","BCAR3, CRK, NCK1, PI3K1_N, SHIP1",
HKIEpYSRRRDA [G08],"BRDG1, BRK, PLCG2_N, SHF, TENC1","BCAR3, BMX, ITK, MIST, PLCG2_C, SHB, SYK_C",

Substance,SH2 Domains >3X,2X < SH2 Domains < 3X,"Other SH2 domains bound (additional array-positive SH2 domains) (SH2 domains with intensity >3X array mean, GST-SH2 0.25 μM, 1 mM DTT)"
PRQSpYVDTSPA [C20],PI3K1_C,,
EGPLpYVIVEAA [F13],"ITK, MATK, PLCG2_N, RASA1_N, SYK_C","ABL2, PLCG2_C, PTPN11_N, SH2D1B",
CTGDpYMNMSPV [C09],,PI3K1_C,
EVSFpYYSEENK [B15],"DAPP1, ITK, PLCG2_C, RASA1_C, Sh2b, SHB, SHE, SYK_C, VAV1","ABL1, BLK, MATK, RASA1_N",
DDPSpYVNVQNL [A06],"GADS, GRAP, GRB2, SH2D1B",,
"PPALpYAEPLDS [11-mer phosphotyrosine peptide, p62DOK1 (Y296)]",,,"Abl1, Nck1, Vav1, Zap70_N"
PKCTpYENVTGG [G13],"GADS, GRB2, GRB7, SH3BP2","GRAP, MIST",
GTEEpYMKMDLG [C18],,PI3K1_C,
VLVEpYAAKGNL [F08],,"MIST, ZAP70_N",
GVSEpYELPEDP [E05],"BRK, NCK1, PLCG2_C, VAV1, YES","BLK, BMX, DAPP1, FER, FGR, LCK, LYN, RIN1, SH3BP2, SHC1",
PGLEpYCYNPSH [E09],"ABL1, GRB7, ZAP70_N",,
THDLpYMIMREC [F10],,PI3K1_C,
NPGFpYVEANPM [H03],ZAP70_N,PI3K1_C,
YVTDpYLDVPSN [A16],SLNK,"BRK, RASA1_N",
TNEEpYLDLSQP [F02],,"BLK, FYN, SH2D1B, SRC, ZAP70_N",
ADDGpYMPMTPG [D18],"HCK, SRC",PI3K1_C,
VIVEpYASKGNL [E07],,BCAR3,
PTYFpYVTDYLD [A15],"BCAR3, BRK, ITK, MATK, PLCG2_N, PLCG2_C, RASA1_N, SH2D2A, SLNK, SYK_C, VAV1","DAPP1, RIN1, SH2D1B, TENC1",
SLDEpYTLMRAT [D14],,PI3K1_C,
SLTIpYAQVQKA [A08],"BCAR3, BMX, BRDG1, FER, MATK, SH2D1B, TENC1","MIST, PI3K1_N, PTPN11_N, PTPN11_C, RIN1, Sh2b, SHC1, SHD, SYK_C",
RGMEpYLASQKC [E24],"BRDG1, SHF","BCAR3, PLCG2_N, PLCG2_C, SHB, SHD, ZAP70_N",
EHIPpYTHMNGG [B06],,PI3K1_C,

Substance,SH2 Domains >3X,2X < SH2 Domains < 3X,"Other SH2 domains bound (additional array-positive SH2 domains) (SH2 domains with intensity >3X array mean, GST-SH2 0.25 μM, 1 mM DTT)"
DLKSpYLRSLRP [A22],"BCAR3, BMX, BRDG1, FER, MIST, PLCG2_N, Sh2b, SHB, SHF, TENC1","BRK, ITK, MATK, PLCG2_C, PTPN11_C, RIN1, SHD, SYK_C",
NSALpYSQVQKS [H24],"BCAR3, BRDG1, CRK, CRKL, PTPN11_C, SH2D1B, SHC1, SHIP1","ABL2, BMX, FER, PTPN11_N, RIN1",
SPGEpYVNIEFG [C16],"BLK, BMX, DAPP1, FGR, GADS, GRAP, GRB2, GRB7, ITK, MIST, PI3K1_N, PI3K1_C, PLCG2_C, PTPN11_N, PTPN11_C, RASA1_N, RASA1_C, Sh2b, SH2D2A, SHB, SHF, SHD, SHE, SYK_C, VAV1, YES","ABL1, ABL2, BRK, FYN, HCK, LCK, LYN, SH2D1B, SRC, TENC1",
VLSYpYSLPRSF [C13],"CRK, CRKL, Sh2b, SH2D2A, SHF, SYK_C","BRDG1, PLCG2_C, PTPN11_C, SHB",
RQLNpYIQVELK [G14],"BCAR3, MIST, PTPN11_N, SHE","BRDG1, SHD, TENC1",
SLPQpYPHINGS [F06],ZAP70_N,,
ELILpYTRKRDS [F20],"BCAR3, BRDG1, MIST, PLCG2_N, SHF, TENC1","BMX, DAPP1, PLCG2_C, PTPN11_C, RASA1_C, SHB, SHD",
FAQLpYRSLMYS [G18],"BRDG1, MIST, Sh2b, SH2D2A, SHB, SHF, SHD, TENC1, ZAP70_N","BMX, DAPP1, GADS, GRAP, PLCG2_N, PTPN11_C, SYK_C",
VSCApYQVARGM [F14],BRDG1,"CRK, ITK, MIST, PLCG2_N, PLCG2_C, SHF, SYK_C",
QGYVpYEAAQPE [H09],VAV1,ZAP70_N,
STVEpYSTVVHS [A11],"BRDG1, BRK, CRK, PTPN11_N, PTPN11_C, SH2D1B, SHC1, SHIP1","ABL2, RIN1",
IGSIpYLFLRKR [A17],"BCAR3, BMX, BRDG1, BRK, DAPP1, FER, MATK, MIST, PI3K1_N, PLCG2_N, PTPN11_N, PTPN11_C, RASA1_C, RIN1, Sh2b, SHB, SHF, SHD, TENC1","FGR, GRB2, PI3K1_C, PLCG2_C, SH3BP2, SHE, SYK_C",
PLSDpYMNLDFS [D24],"GADS, GRAP, GRB2, RASA1_N, SYK_C","ABL1, GRB7, PI3K1_C, PLCG2_N, RASA1_C",
EDYDpYVHLQGK [H13],"FYN, LCK, LYN, MIST","BLK, SH2D1B, SHC1",
ETDYpYRKGGKG [B02],"BCAR3, BRDG1, BRK, TENC1","BMX, MIST, PLCG2_N, RIN1, SHF, SYK_C",
VNPEpYFSAADV [B12],,Sh2b,
GGEFpYGYMTMD [D10],"BCAR3, DAPP1, GRB7, PLCG2_C, SLNK","BMX, MATK, RASA1_N, RASA1_C",
HHIDpYYKKTTN [E13],"BCAR3, BMX, BRDG1, FER, MIST, PLCG2_N, PTPN11_C, SHB, SHF, TENC1","DAPP1, ITK, MATK, PI3K1_N, PTPN11_N, RIN1, SH3BP2, SHD, SHE, SHIP1, SYK_C",
SSDSpYAVIDLK [G15],"SH2D1B, SHC1, SHIP1",HCK,
TDDGpYMPMSPG [C06],"HCK, PI3K1_C, SRC",FYN,
